Measurements as given in patent US12250946B2, “Antifungal composition having excellent antifungal activity even at low temperature” (Korea University Research and Business Foundation, priority 2020, dated 2025).

System: Candida albicans biofilms
Assay: Biofilm inhibitory activity by confocal laser scanning microscopy (SYTO 9 / PI staining)
Assay type: cell-based
Details: 5 minutes treatment, 1.2 mM each component
Method: Candida albicans biofilms were formed on a stainless-steel coupon. Specifically, the […] were immersed in 90% (v/v) ethanol for 30 minutes for decontamination of stainless-steel coupons (1.5×1.0 cm2) and washed with sterile distilled water. Then, stainless-steel coupons were placed in a 12-well tissue culture plate containing 4.95 mL of SDB enrichment medium, and 50 uL of the mixed suspensions of albicans were dispensed and cultured at 30° C. for 48 hours to form Candida albicans biofilms. After forming the biofilm on each coupon, weakly attached cells, not the biofilm, were separated using 0.85% sterile physiological saline.
The antifungal activity of the antimicrobial mixture of the present disclosure was confirmed through confocal laser scanning microscopy analysis. For the biofilms of Candida species treated with each antimicrobial mixture, intact cells were stained with green fluorescent SYTO®9 (S-34854, Molecular Probes™, Thermo Fisher Scientific Inc., Pittsburgh, PA, USA; final concentration: 6.7 μM; excitation: 488 nm, emission: 498/501 nm), and damaged cells were detected by staining with red fluorescent propidium iodide (PI; P3566, Molecular Probes™; final concentration: 15 μM; excitation: 555 nm, emission: 617 nm). […]

Compound: CC(O)CO (centres unmarked) [compound 2, propylene glycol]
- damage to the fungal cell membrane in the biofilms (SYTO 9 green / PI red fluorescence) (5° C., FIGS. 4A-4F): did not show significant damage to the fungal cell membrane
- damage to the fungal cell membrane in the biofilms (SYTO 9 green / PI red fluorescence) (22° C., FIGS. 5A-5F): did not show significant damage to the fungal cell membrane
